In patent publication US20090285773A1, “Hepatitis C Virus Inhibitors” (Bristol-Myers Squibb Company, priority 2008, published 2009):

Legend:
[1] = tested on: HCV replicon (strain 1b) in HUH-7 cells; assay: HCV replicon FRET assay; format: cell-based; settings: Hepatitis C virus, Huh-7; Table 2; replicon assay variant and unit inferred; read-out: EC50
From the text: An HCV replicon whole cell system was established as described by Lohmann V, Korner F, Koch J, Herian U, Theilmann L, Bartenschlager R., Science 285(5424): 110-3 (1999). This system enabled us to evaluate the effects of our HCV Protease compounds on HCV RNA replication. Briefly, using the HCV strain 1b sequence described in the Lohmann paper (Assession number:AJ238799), an HCV cDNA was synthesized by Operon Technologies, Inc. (Alameda, Calif.), and the full-length replicon was then assembled in plasmid pGem9zf(+) (Promega, Madison, Wis.) using standard molecular biology techniques. The replicon consists of (i) the HCV 5′ UTR fused to the first 12 amino acids of the capsid protein, (ii) the neomycin phosphotransferase gene (neo), (iii) the IRES from encephalomyocarditis virus (EMCV), and (iv) HCV NS3 to NS5B genes and the HCV 3′ UTR. Plasmid DNAs were linearized with ScaI and RNA transcripts were synthesized in vitro using the T7 MegaScript transcription kit (Ambion, Austin, Tex.) according to manufacturer's directions. In vitro transcripts of the cDNA were transfected into the human hepatoma cell line, HUH-7. […] Resulting cell lines were characterized for positive and negative strand RNA production and protein production over time.
The HCV replicon FRET assay was developed to monitor the inhibitory effects of compounds described in the disclosure on HCV viral replication. HUH-7 cells, constitutively expressing the HCV replicon, were grown in Dulbecco's Modified Eagle Media (DMEM) (Gibco-BRL) containing 10% Fetal calf serum (FCS) (Sigma) and 1 mg/ml G418 (Gibco-BRL). Cells were seeded the night before (1.5×10^4 cells/well) in 96-well tissue-culture sterile plates. Compound and no compound controls were prepared in DMEM containing 4% FCS, 1:100 Penicillin/Streptomysin (Gibco-BRL), 1:100 L-glutamine and 5% DMSO in the dilution plate (0.5% DMSO final concentration in the assay). Compound/DMSO mixes were added to the cells and incubated for 4 days at 37° C. After 4 days, cells were first assessed for cytotoxicity using alamar Blue (Trek Diagnotstic Systems) for a CC50 reading. The toxicity of compound (CC50) was determined by adding 1/10th volume of alamar Blue to the media incubating the cells. After 4 h, the fluorescence signal from each well was read, with an excitation wavelength at 530 nm and an emission wavelength of 580 nm, using the Cytofluor Series 4000 (Perspective Biosystems). Plates were then rinsed thoroughly with Phosphate-Buffered Saline (PBS) (3 times 150 μl).

NS3/4A protease complex = target: T1, NS3/4A protease complex (UniProt P27958); assay: HCV NS3/4A protease complex enzyme assay (strain not stated); format: biochemical; settings: Table 2; strain and unit inferred
T1 construct: fused on or other part: three-lysine solubilising tail at the C-terminus of NS4A; probably a His tag from pET21b (Ni-NTA purification)
T1 sequence (P27958 1027-1657, one chain of several): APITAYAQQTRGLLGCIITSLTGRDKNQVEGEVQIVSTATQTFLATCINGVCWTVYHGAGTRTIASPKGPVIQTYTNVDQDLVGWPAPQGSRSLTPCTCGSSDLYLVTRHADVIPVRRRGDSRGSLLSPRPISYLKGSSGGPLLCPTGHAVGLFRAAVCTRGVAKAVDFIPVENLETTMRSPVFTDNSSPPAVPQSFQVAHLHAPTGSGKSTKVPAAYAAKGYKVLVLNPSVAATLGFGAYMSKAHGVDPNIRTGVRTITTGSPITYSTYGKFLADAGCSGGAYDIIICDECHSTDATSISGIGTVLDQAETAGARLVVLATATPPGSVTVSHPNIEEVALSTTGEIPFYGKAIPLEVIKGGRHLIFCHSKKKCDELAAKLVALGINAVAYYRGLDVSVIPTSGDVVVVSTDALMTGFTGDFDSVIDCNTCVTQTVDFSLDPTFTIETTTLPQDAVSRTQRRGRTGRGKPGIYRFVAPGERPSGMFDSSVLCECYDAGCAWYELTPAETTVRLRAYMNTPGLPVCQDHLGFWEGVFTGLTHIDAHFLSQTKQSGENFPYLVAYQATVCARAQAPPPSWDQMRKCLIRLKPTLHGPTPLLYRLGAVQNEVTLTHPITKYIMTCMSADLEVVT
From the text: The purpose of this in vitro assay was to measure the inhibition of HCV NS3 protease complexes, derived from the BMS strain, H77 strain or J4L6S strain, as described above, by compounds of the present disclosure. This assay provides an indication of how effective compounds of the present disclosure would be in inhibiting HCV NS3 proteolytic activity.
In order to monitor HCV NS3/4A protease activity, an NS3/4A peptide substrate was used. The substrate was RET S1 (Resonance Energy Transfer Depsipeptide Substrate; AnaSpec, Inc. cat #22991)(FRET peptide), described by Taliani et al. in Anal. Biochem. 240(2):60-67 (1996). The sequence of this peptide is loosely based on the NS4A/NS4B natural cleavage site for the HCV NS3 protease except there is an ester linkage rather than an amide bond at the cleavage site. The peptide also contains a fluorescence donor, EDANS, near one end of the peptide and an acceptor, DABCYL, near the other end. The fluorescence of the peptide is quenched by […] resonance energy transfer (RET) between the donor and the acceptor, but as the NS3 protease cleaves the peptide the products are released from RET quenching and the fluorescence of the donor becomes apparent.
The peptide substrate was incubated with one of the three recombinant NS3/4A protease complexes, in the absence or presence of a compound of the present disclosure. The inhibitory effects of a compound were determined by monitoring the formation of fluorescent reaction product in real time using a Cytofluor Series 4000.
Assay buffer: 50 mM HEPES, pH 7.5; 0.15 M NaCl; 0.1% Triton; 15% Glycerol; 10 mM βME. Substrate: 2 μM final concentration (from a 2 mM stock solution in DMSO stored at −20° C.). HCV NS3/4A protease type 1a (1b), 2-3 nM final concentration (from a 5 μM stock solution in 25 mM HEPES, pH 7.5, 20% glycerol, 300 mM NaCl, 0.2% Triton-X100, 10 mM βME). For compounds with potencies approaching the assay limit, the assay was made more sensitive by adding 50 μg/ml Bovine Serum Albumin (Sigma) to the assay buffer and reducing the end protease concentration to 300 pM.
The assay was performed in a 96-well polystyrene black plate from Falcon. Each well contained 25 μl NS3/4A protease complex in assay buffer, 50 μl of a compound of the present disclosure in 10% DMSO/assay buffer and 25 μl substrate in assay buffer. A control (no compound) was also prepared on the same assay plate. The enzyme complex was mixed with compound or control solution for 1 min before initiating the enzymatic reaction by the addition of substrate. The assay plate was read immediately using the Cytofluor Series 4000 (Perspective Biosystems). The instrument was set to read an emission of […] at 25° C. Reactions were generally followed for approximately 15 min.
The percent inhibition was calculated with the following equation: […]
where δF is the change in fluorescence over the linear range of the curve. A non-linear curve fit was applied to the inhibition-concentration data, and the 50% effective concentration (IC50) was calculated by the use of Excel XLfit software using the equation, y=A+((B−A)/(1+((C/x)̂D))).

COc1ccc2c(O[C@@H]3C[C@H]4C(=O)N[C@]5(C(=O)NS(=O)(=O)C6CC6)C[C@H]5/C=C\CCCCC[C@H](Nc5nc(-c6ccc(OC(F)(F)F)cc6)cs5)C(=O)N4C3)nccc2c1 [Compound 3]
EC50 [1]: 6.2 nM
IC50 (NS3/4A protease complex): 5 nM

COc1ccc(N[C@H]2CCCCC/C=C\[C@@H]3C[C@@]3(C(=O)NS(=O)(=O)C3CC3)NC(=O)[C@@H]3C[C@@H](Oc4ncc(OC)c5ccc(Cl)cc45)CN3C2=O)cn1 (single isomer, unassigned) [Compound 2]
EC50 [1]: 9.1 nM
IC50 (NS3/4A protease complex): 6 nM

COc1ccc2c(O[C@@H]3C[C@H]4C(=O)N[C@]5(C(=O)NS(=O)(=O)C6CC6)C[C@H]5/C=C\CCCCC[C@H](Nc5nc(-c6ccc(F)cc6F)cs5)C(=O)N4C3)nccc2c1 [Compound 4]
EC50 [1]: 13.8 nM
IC50 (NS3/4A protease complex): 11 nM

COc1cnc(O[C@@H]2C[C@H]3C(=O)N[C@]4(C(=O)NS(=O)(=O)C5CC5)C[C@H]4/C=C\CCCCC[C@H](Nc4nc(-c5ccc(OC(F)(F)F)cc5)cs4)C(=O)N3C2)c2cc(Cl)ccc12 [Compound 6]
EC50 [1]: 8.7 nM
IC50 (NS3/4A protease complex): 2 nM

COc1ccc2c(O[C@@H]3C[C@H]4C(=O)N[C@]5(C(=O)NS(=O)(=O)C6CC6)C[C@H]5/C=C\CCCCC[C@H](Nc5nc(-c6ccccc6)cs5)C(=O)N4C3)nccc2c1 [Compound 5]
EC50 [1]: 8.1 nM
IC50 (NS3/4A protease complex): 3 nM
